# Test results as given in US11555055B2, “Peptide inhibitors of insulin-degrading enzyme” (The Regents of the University of California, priority 2017, dated 2023).
# Read-outs that look alike come from different tables or passages of the source. Where a SMILES comes first, the peptide text is derived from it. Bridges are numbered along the chain shown (N, C = ends).
# Key:
# [1] = biological target: T1, IDE (Homo sapiens, UniProt P14735); assay: IDE protease activity assay, insulin degradation quantified by ELISA; assay type: biochemical
# T1 construct: made in house; host or cells: bacteria
# T1 sequence (P14735 1-1019): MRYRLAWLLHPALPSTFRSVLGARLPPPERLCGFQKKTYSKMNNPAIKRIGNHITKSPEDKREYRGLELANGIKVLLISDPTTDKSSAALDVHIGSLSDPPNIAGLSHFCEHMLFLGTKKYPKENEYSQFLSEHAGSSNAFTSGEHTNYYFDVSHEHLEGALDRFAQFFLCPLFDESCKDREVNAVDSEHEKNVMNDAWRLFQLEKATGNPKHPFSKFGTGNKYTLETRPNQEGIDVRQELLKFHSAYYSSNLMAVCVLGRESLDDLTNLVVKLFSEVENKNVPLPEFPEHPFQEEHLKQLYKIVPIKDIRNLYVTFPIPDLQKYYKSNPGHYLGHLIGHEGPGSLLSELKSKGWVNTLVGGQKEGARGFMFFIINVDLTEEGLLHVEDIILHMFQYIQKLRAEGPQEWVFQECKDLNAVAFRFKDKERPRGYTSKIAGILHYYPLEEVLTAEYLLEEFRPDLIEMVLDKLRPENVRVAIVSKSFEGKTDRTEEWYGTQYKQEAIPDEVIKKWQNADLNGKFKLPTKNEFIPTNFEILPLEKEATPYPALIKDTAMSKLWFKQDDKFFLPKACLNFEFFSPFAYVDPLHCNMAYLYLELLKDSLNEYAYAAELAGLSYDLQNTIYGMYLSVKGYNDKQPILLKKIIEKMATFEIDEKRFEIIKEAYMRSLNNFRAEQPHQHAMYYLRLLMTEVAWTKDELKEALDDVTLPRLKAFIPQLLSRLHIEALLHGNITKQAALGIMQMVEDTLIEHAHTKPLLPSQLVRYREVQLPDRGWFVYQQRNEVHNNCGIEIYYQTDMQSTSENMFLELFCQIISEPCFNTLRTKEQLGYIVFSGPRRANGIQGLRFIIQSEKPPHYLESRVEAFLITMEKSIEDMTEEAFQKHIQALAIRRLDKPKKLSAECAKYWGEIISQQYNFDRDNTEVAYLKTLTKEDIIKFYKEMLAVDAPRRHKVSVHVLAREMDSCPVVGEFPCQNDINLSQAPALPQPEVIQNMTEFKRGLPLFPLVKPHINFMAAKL
# Protocol: To assess the extent to which these peptide sequences inhibit IDE, we quantified their potency in protease activity assays using recombinant human IDE and two different substrates: FRET1, a fluorogenic peptide (45), and recombinant human insulin.
# Degradation Assays—IDE activity was quantified by monitoring the degradation of (7-methoxycoumarin-4-yl)acetic acid-[…](2,4-dinitrophenyl) (FRET1, 5 μM) (49,55), fluoresceinated and biotinylated amyloid β-protein (FAβB; 500 nM) or recombinant human insulin (50 nM) in PBS supplemented with 0.05% BSA. FRET1 degradation was measured by changes in fluorescence (λex=340 nm, λem=420 nm); FAβB degradation was monitored by fluorescence polarization (λex=488 nm, λem=525 nm), as described (56); and insulin degradation was quantified by ELISA. In vitro activity assays incorporated recombinant human IDE (1 nM) purified from bacteria (35). For quantitation of insulin degradation in primary murine skin fibroblasts, cells (1×10^5/well) were plated in 96-well plates and maintained in DMEM supplemented with 10% fetal bovine serum (FBS), 2 mM glutamine, penicillin and streptomycin. After addition of insulin (10 nM or 100 nM), samples of conditioned medium were removed daily and quickly frozen, then insulin levels were quantified in parallel by ELISA according to manufacturer's recommendations (Crystal Chem, Downers Grove, Ill., USA). Assessment of the activity of P12-3A against a variety of matrix-metalloproteases was conducted using the Matrix Metalloproteinase (MMP) Inhibitor Profiling Kit, Fluorometric RED (Enzo Life Sciences, Inc., Farmingdale, N.Y., USA) according to manufacturer's recommendations using the broad-spectrum MMP inhibitor, NNGH, as a positive control.
# [2] = test system: 15 different proteases; assay: Selectivity of P12-3A against 15 other proteases (MMPs and peptidases of different classes); assay type: biochemical; conditions: P12-3A 100 μM
# Protocol: FIG. 8A-B. Selectivity of P12-3A for IDE vis-à-vis other proteases. Activity of P12-3A (100 μM) against (A) multiple matrix-metalloproteases (MMPs) and (B) multiple peptidases of different protease classes. […] Data are mean±SEM, n=8-16 per group. P<0.05 by 2-tailed Student's t-test. […] See Experimental Procedures for details. NEP, neprilysin; mCatD, murine cathepsin D; hCatD, human cathepsin D.
# Degradation Assays—IDE activity was quantified by monitoring the degradation of (7-methoxycoumarin-4-yl)acetic acid-[…](2,4-dinitrophenyl) (FRET1, 5 μM) (49,55), fluoresceinated and biotinylated amyloid β-protein (FAβB; 500 nM) or recombinant human insulin (50 nM) in PBS supplemented with 0.05% BSA. FRET1 degradation was measured by changes in fluorescence (λex=340 nm, λem=420 nm); FAβB degradation was monitored by fluorescence polarization (λex=488 nm, λem=525 nm), as described (56); and insulin degradation was quantified by ELISA. In vitro activity assays incorporated recombinant human IDE (1 nM) purified from bacteria (35). For quantitation of insulin degradation in primary murine skin fibroblasts, cells (1×10^5/well) were plated in 96-well plates and maintained in DMEM supplemented with 10% fetal bovine serum (FBS), 2 mM glutamine, penicillin and streptomycin. […]
smiles,measurement,setting,value
CC(C)C[C@H](NC(=O)[C@H](CO)NC(=O)[C@@H](N)CCC(N)=O)C(=O)N1CCC[C@H]1C(=O)N[C@@H](Cc1c[nH]c2ccccc12)C(=O)N[C@H]1CSSC[C@@H](C(=O)N[C@H](C(=O)N[C@H](C(N)=O)[C@@H](C)O)C(C)C)NC(=O)[C@H](Cc2c[nH]cn2)NC(=O)[C@@H]2CCCN2C(=O)[C@H](Cc2ccc(O)cc2)NC1=O [Peptide P12-3A] (H-QSLPWCYPHCVT-NH2; disulfide 6-10 (inferred)),Ki,"[1]; deliberately cyclized, highly pure cosmetic-grade P12-3A, n=6, read-out: Ki against insulin degradation",2.5 ± 0.31 µM
same,Ki,"[1]; substrate recombinant human insulin, Ki converted from IC50 with the Cheng-Prusoff equation, read-out: Ki Insulin",4.1 ± 0.3 µM
same,inhibition of 15 different proteases,[2],essentially no inhibition
